Source: BindingDB's records for doi:10.1021/acs.jmedchem.8b00864 (2018)

Columns and labels:
[1] = biological target: 2-acylglycerol O-acyltransferase 2 (MOGAT2, Homo sapiens) (UniProt Q3SYC2); assay: Inhibition of recombinant human MGAT2 expressed in sf9 cells using 2-monooleoyl glycerol/[14C]-oleoyl CoA as substrate by microscintillation counting method
[2] = biological target: 2-acylglycerol O-acyltransferase 2 (MOGAT2, Homo sapiens) (UniProt Q3SYC2); assay: Inhibition of recombinant human MGAT2
[3] = biological target: 2-acylglycerol O-acyltransferase 2 (MOGAT2, Homo sapiens) (UniProt Q3SYC2); assay: Inhibition of recombinant human MGAT2 using 2-monooleoyl glycerol/[1-14C]-oleoyl CoA as substrate after 30 mins by liquid scintillation counting method

Sequence of 2-acylglycerol O-acyltransferase 2 (MOGAT2, Homo sapiens) (Q3SYC2 whole entry, looked up): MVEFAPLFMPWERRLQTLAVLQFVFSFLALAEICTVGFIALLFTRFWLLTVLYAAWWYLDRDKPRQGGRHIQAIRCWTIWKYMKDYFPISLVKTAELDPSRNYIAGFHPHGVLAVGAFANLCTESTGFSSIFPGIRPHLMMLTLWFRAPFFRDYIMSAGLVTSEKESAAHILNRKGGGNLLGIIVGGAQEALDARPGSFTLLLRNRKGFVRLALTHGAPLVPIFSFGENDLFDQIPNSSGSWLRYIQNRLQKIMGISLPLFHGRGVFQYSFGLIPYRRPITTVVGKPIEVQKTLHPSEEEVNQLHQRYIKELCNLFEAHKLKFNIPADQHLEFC

Row | IC50 [2] | SMILES | further results
1 |  | CS(=O)(=O)N[C@@H](c1ccc(CNC[C@H]2COc3cccnc3O2)cc1)C(F)(F)F | IC50 [1]: 3.8 nM
2 | 1.1 nM | O=C(CCNCC1COc2ccccc2O1)N1CCc2nc(SC3CCC3)n(-c3ccccc3)c(=O)c2C1 (configuration not stated) | 
3 | 56 nM | O=c1c2c(nc(SCc3cccnc3)n1-c1ccccc1)CCN(c1nc3cc(C(F)(F)F)ccc3[nH]1)C2 | 
4 | 0.64 nM | O=C(CNCCCCCOc1ccc(C(F)(F)F)cc1)N1CCc2nc(SC3CCC3)n(-c3ccccc3)c(=O)c2C1 | 
5 | 7 nM | Cc1ccc(C2=C(C(=O)Nc3ccc(-c4nnn[nH]4)cc3)C(=O)N[C@@](c3ccc(OCCCC(F)(F)F)cc3F)(C(F)(F)F)C2)cc1 | 
6 |  | O=C(CCNC1Cc2ccccc2C1)N1CCc2nc(SC3CCC3)n(-c3ccccc3)c(=O)c2C1 | IC50 [3]: 0.38 nM
7 | 0.3 nM | CCc1ccc(-c2cc(-c3ccc(OCCCCCC(F)(F)F)cc3C(F)(F)F)[nH]c(=O)c2-c2nn[nH]n2)s1 | 
8 | 4 nM | CCOC(=O)CCc1ccc(CN2CC(C(=O)N3CCc4nc(SC5CCCCC5)n(-c5ccccc5)c(=O)c4C3)C2)cc1 | 
9 | 2 nM | O=C1N[C@@](c2ccc(OCCCC(F)(F)F)cc2F)(C(F)(F)F)CC(c2ncc(C3CC3)s2)=C1n1nn[nH]c1=O | 
10 | < 1 nM | O=C1N[C@@]2(CCc3cc(OCCCC(F)(F)F)ccc32)CC(c2cnc(C3CC3)s2)=C1c1noc(=O)[nH]1 | 
11 |  | CC(C)(C)C1CCN(Cc2ccc([C@H](NS(C)(=O)=O)C(F)(F)F)cc2)CC1 | IC50 [1]: 58 nM
12 | 19 nM | CC(C)(C)c1cc(C(C)(C)C)nc(N2CCn3c(nnc3-c3ccc(OC(F)(F)F)cc3)C2)n1 | 
